From publication PMC8190895 (RSC Chemical Biology, 2021) come the findings set out here.

Holding throughout (assay): ITC
Assay type in all cases: binding

Assay [1] concerns the target T1, Gal-8N (N-terminal CRD of human galectin-8) (Homo sapiens, UniProt O00214).
T1 sequence (O00214 1-155): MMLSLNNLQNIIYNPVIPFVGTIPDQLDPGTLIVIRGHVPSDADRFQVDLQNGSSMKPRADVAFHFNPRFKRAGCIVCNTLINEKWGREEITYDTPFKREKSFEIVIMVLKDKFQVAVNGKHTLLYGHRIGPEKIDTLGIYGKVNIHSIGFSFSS
The conditions noted are these: read-out: Neu5Acα2-3Galb1-3GalNAc (3); PBS (50 mM sodium phosphate, 150 mM NaCl) pH 7.4, 1 mM TCEP, 298 K.

The target in assay [2] is T2, Gal-8FL (full-length human galectin-8) (Homo sapiens, UniProt O00214).
T2 sequence (O00214 1-317): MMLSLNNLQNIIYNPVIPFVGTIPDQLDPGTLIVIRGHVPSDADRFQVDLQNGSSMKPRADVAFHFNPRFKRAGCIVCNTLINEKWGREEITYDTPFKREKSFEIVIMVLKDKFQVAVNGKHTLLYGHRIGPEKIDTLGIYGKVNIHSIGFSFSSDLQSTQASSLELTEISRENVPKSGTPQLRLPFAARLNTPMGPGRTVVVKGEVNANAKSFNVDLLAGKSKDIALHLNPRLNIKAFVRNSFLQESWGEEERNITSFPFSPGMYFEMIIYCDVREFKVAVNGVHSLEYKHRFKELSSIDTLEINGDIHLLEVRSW
Particulars: PBS (50 mM sodium phosphate, 150 mM NaCl) pH 7.4, 1 mM TCEP, 298 K.

Assay [3] deals with T3, Gal-8C (C-terminal CRD of human galectin-8) (Homo sapiens, UniProt O00214).
T3 sequence (O00214 184-317): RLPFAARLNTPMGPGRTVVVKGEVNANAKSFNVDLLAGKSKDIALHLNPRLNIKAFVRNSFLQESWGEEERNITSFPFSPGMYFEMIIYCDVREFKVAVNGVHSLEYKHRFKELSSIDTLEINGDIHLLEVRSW
The conditions noted are these: PBS (50 mM sodium phosphate, 150 mM NaCl) pH 7.4, 1 mM TCEP, 298 K.

Where two headings read alike, the source gives them in different places.

As for `CC(=O)N[C@H]1[C@H]([C@H](O)[C@H](O)CO)O[C@@](O[C@H]2[C@@H](O)[C@@H](CO)O[C@@H](O[C@H]3[C@@H](O)[C@@H](CO)OC(O)[C@@H]3NC(C)=O)[C@@H]2O)(C(=O)O)C[C@@H]1O` (stereo partly drawn) [compound 3, 3-sialyl-Galβ1–3GalNAc], the Kd in assay [1] amounted to 2.2 ± 0.1 µM; in assay [2] (read-out: Neu5Acα2-3Galb1-3GalNAc (3), site: N-terminal CRD, not pre-loaded), 4.3 ± 0.4 µM.

`CC(=O)N[C@H]1C(O)O[C@H](CO)[C@@H](O[C@@H]2O[C@H](CO)[C@H](O)[C@H](O[C@H]3O[C@H](CO)[C@H](O)[C@H](O)[C@H]3O)[C@H]2O[C@@H]2O[C@@H](C)[C@@H](O)[C@@H](O)[C@@H]2O)[C@@H]1O` (stereo partly drawn) [compound 5, B type II]: the Kd in assay [3] (read-out: B type II (5)) amounted to 18.4 ± 0.1 µM; in assay [2] (read-out: B type II (5), site: C-terminal CRD), 36.7 ± 0.6 µM.

Consider `CC(=O)N[C@H]1[C@@H](O[C@H]2[C@@H](O)[C@@H](CO)O[C@@H](O[C@H]3[C@H](O)[C@@H](NC(C)=O)C(O)O[C@@H]3CO)[C@@H]2O[C@@H]2O[C@@H](C)[C@@H](O)[C@@H](O)[C@@H]2O)O[C@H](CO)[C@H](O)[C@@H]1O` (stereo partly drawn) [compound 6, A type II], for which the Kd in assay [3] (read-out: A type II (6)) turned out to be 13.45 ± 0.05 µM; in assay [2] (read-out: A type II (6), site: C-terminal CRD, not pre-loaded) it was 12 ± 1 µM.
